This is an account of results in paper PMC10408683, “Dual Blockade of EP2 and EP4 Signaling is Required for Optimal Immune Activation and Antitumor Activity Against Prostaglandin-Expressing Tumors” (Cancer Research Communications, 2023).

What is called IC50 is the concentration needed to halve the response being measured.

Format in all cases: cell-based
The target in test [1] is T1, EP2 (Homo sapiens, UniProt P43116).
T1 construct: gene PTGER2
Nature of the test: calcium flux antagonism of PGE2 in HEK293 cells stably expressing EP2 coupled through a promiscuous G protein. (In general: Calcium flux is commonly read through the fluorescence of an indicator in the cells.)

For test [2], the target named is T2, EP4 (Homo sapiens, UniProt P35408).
T2 construct: gene PTGER4
T2 sequence (P35408 whole entry): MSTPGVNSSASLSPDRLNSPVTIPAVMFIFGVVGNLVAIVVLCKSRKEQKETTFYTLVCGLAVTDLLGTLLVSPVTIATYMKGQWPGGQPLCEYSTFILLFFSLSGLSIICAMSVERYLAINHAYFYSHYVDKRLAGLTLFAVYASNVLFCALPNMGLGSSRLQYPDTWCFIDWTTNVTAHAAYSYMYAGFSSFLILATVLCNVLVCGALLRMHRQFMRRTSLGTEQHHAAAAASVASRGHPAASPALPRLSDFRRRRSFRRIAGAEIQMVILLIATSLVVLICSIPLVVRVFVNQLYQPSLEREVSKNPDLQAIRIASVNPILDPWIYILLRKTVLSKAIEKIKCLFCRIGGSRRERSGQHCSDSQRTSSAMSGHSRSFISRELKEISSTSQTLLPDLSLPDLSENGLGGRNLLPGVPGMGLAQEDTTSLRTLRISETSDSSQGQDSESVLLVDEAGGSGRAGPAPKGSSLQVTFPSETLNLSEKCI
Nature of the test: calcium flux antagonism of PGE2 in HEK293 cells stably expressing EP4 coupled through a promiscuous G protein.

Test [3] addresses T2, EP4. Nature of the test: calcium flux assay in HEK293-based cells stably expressing human EP4.

T1 sequence (P43116 whole entry): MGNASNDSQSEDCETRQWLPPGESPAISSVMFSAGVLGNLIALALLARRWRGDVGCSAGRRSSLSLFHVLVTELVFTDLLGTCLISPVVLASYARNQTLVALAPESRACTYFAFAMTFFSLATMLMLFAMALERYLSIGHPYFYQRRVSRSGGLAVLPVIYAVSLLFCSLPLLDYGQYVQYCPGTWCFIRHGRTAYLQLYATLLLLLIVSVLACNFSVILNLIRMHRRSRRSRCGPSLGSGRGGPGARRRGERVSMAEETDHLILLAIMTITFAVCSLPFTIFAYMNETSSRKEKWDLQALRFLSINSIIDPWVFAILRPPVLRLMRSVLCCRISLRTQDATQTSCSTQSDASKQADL

In the case of TPST-1495, the IC50 worked out at 17.2 nM in test [1] and 3.24 nM in test [2].

Take TPST-7131: the IC50 in test [3] is 0.4 nM.
